Experiments:
[1] = molecular target: EGFR kinase (Homo sapiens (Human), UniProt P00533); test: Inhibition of EGFR kinase activity (ULight-labeled JAK-1 (Tyr1023) peptide substrate); assay type: biochemical; settings: EGFR kinase 0.35 nM, ATP 150 μM, 2 hours
Protocol: (§1) The assay for the inhibition of EGFR and HER2 kinase activity by small molecular compounds was carried out using the method as follows:
(§2) 1) Dilution of the compounds
(§3) In a 96-well plate a, the compounds were diluted with DMSO using a 3-fold gradient dilution to form 11 concentrations, the 12th concentration is pure DMSO (as a positive control); and in a new 96-well plate b the above solutions were diluted 25 times with ultrapure water (DMSO concentration is 4%).
(§4) 2) Transferring the compounds to 384-well plate
(§5) The compound solutions diluted with ultrapure water in the 96-well plate b above was transferred to the corresponding wells of a 384-well plate in duplicate.
(§6) 3) Addition of 4×kinase solution: 2.5 μl of the above 4× kinase solution was taken using multichannel pipette and added to the corresponding reaction wells of the 384-well plate, mixed well and pre-reacted at room temperature for 5 minutes.
(§7) 4) Addition of 2×substrate/ATP mixed solution: 5 μl of the above 2×substrate/ATP mixed solution was taken using multichannel pipette and added to the corresponding reaction wells of the 384-well plate.
(§8) 5) Negative control: negative control wells were set in the 384-well plate, and 2.5 μl 4×substrate, 2.5 μl 4×enzyme solution, 2.5 μl 1×Kinase Assay Buffer and 2.5 μl ultrapure water containing 4% DMSO were added to each well.
(§9) 6) Mixed by centrifugation and kept at room temperature for 2 hours in the dark.
(§10) 7) Termination of the enzymatic reaction:
(§11) 5 μl of the above 4× stop solution was pipetted to the corresponding wells of the 384-well plate, centrifuged and mixed, and reacted at room temperature for 5 minutes.
(§12) 5 μl of the above 4× detection solution was pipetted into the corresponding wells of the 384-well plate, centrifuged and mixed, and reacted at room temperature for 1 hour.
(§13) 9) The 384-well plate was placed into a microplate reader and the signal was detected using the corresponding program.
(§14) 10) IC50 analysis: Well reading value=10000*EU665 value/EU615 value Inhibition rate=(reading value of positive control well−reading value of experimental well)/(reading value of positive control well−reading value of negative control well)*100% Corresponding IC50s can be calculated by entering the drug concentrations and the corresponding inhibition rates into GraphPad Prism 5.
Conditions of experiment for screening EGFR kinase inhibitory molecules:
The final concentration of EGFR kinase in the reaction system is 0.35 nM, and the final concentration of ATP is 150 μM, the final concentration of substrate ULight™-labeled JAK-1 (Tyr1023) Peptide is 100 nM, and the enzymatic reaction time is 2 hours.
(§15) The maximum final concentration of the compound in the reaction system is 2.5 μM, 11 concentrations were made with a 3-fold gradient dilution, and the minimal final concentration is 0.042 nM. The final concentration of DMSO is 1%.

[2] = molecular target: HER2 kinase (Homo sapiens (Human), UniProt P04626); test: Inhibition of HER2 kinase activity (ULight-labeled PolyGT substrate); assay type: biochemical; settings: HER2 kinase 10 nM, ATP 10 μM, 2 hours
Chain of HER2 kinase (P04626 23-1255): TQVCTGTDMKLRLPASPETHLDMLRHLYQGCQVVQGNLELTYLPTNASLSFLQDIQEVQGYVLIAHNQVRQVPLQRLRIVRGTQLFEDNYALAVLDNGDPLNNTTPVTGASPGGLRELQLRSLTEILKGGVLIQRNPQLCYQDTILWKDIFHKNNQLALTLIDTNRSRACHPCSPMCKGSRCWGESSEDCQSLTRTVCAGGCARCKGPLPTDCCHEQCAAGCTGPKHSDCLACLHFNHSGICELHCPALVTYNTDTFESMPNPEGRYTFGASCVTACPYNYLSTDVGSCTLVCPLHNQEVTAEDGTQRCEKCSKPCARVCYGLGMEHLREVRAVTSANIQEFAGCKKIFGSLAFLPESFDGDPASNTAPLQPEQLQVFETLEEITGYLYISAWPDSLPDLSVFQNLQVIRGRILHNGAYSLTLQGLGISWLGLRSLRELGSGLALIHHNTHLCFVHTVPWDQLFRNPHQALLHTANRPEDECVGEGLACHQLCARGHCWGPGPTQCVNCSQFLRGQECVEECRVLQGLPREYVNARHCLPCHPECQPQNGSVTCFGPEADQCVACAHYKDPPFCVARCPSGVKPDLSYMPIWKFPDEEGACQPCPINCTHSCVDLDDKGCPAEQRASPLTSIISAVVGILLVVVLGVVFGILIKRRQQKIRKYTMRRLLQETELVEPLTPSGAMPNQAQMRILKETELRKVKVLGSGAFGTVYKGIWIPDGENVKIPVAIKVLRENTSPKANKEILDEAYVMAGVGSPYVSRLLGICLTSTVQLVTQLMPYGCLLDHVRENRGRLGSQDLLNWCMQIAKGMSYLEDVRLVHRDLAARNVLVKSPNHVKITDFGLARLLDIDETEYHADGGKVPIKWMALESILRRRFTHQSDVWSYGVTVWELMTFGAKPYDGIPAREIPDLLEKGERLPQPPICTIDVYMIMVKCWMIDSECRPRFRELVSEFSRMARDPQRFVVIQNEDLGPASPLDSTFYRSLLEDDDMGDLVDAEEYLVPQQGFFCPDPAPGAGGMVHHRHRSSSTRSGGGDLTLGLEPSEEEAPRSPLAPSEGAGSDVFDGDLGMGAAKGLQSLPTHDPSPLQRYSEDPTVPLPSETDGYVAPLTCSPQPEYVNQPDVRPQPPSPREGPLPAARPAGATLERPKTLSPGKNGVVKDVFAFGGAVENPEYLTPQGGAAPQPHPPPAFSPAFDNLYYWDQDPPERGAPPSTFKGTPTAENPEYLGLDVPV
Protocol: as §1, §2, §3, §4, §5, §6, §7, §8, §9, §10, §11, §12, §13, §14
Conditions of experiment for screening HER2 kinase inhibitory molecules:
The final concentration of HER2 kinase in the reaction system is 10 nM, the final concentration of ATP is 10 μM, the final concentration of substrate ULight™-labeled PolyGT is 100 nM, and the enzymatic reaction time is 2 hours.
as §15

Chain of EGFR kinase (P00533 25-1210): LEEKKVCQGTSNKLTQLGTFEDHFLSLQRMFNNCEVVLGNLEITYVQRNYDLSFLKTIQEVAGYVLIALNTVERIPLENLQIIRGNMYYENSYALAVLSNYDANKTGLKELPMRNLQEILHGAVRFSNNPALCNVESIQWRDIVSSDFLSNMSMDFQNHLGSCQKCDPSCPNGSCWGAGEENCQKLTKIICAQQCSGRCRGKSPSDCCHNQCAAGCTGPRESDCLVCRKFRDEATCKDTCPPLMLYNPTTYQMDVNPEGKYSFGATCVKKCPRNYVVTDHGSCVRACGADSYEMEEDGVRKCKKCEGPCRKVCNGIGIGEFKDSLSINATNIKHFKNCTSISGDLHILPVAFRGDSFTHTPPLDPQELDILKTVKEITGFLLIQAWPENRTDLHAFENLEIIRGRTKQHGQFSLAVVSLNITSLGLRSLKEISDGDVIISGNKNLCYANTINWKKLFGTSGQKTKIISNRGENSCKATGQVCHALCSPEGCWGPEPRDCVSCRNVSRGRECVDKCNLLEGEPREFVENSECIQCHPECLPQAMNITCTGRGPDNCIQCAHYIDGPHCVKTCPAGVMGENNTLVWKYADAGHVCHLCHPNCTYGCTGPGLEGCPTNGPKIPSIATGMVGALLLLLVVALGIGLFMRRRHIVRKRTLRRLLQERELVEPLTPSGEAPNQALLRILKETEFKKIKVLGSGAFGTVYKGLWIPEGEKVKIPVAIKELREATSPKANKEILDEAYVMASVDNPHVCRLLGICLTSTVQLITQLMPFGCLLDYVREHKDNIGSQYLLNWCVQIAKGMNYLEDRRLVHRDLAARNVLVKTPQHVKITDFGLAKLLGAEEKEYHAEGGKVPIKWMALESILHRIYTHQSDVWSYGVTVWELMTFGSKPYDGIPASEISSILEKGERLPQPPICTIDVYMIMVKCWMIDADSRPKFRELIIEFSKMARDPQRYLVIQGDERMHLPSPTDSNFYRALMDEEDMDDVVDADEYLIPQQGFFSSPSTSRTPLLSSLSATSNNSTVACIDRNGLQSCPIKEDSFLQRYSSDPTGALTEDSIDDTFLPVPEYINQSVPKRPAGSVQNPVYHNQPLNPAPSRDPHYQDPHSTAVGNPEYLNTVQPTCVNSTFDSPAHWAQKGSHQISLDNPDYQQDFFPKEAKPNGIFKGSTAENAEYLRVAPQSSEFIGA

Compound	IC50 [1] [nM]	IC50 [2] [nM]
C=CC(=O)N1CCOc2c1ccc1ncnc(Oc3ccc(OCc4cccc(F)c4)cc3)c21 [Example 41, 1-(10-(4-((3-fluorobenzyl)oxy)phenoxy)-2,3-dihydro-4H-[1,4]oxazino[2,3-f]quinazolin-4-yl)prop-2-en-1-one]	≤ 50	≤ 50
C=CC(=O)N1CCOc2c1ccc1ncnc(Oc3ccc(OCc4ccc(F)cc4)cc3)c21 [Example 42, 1-(10-(4-((4-fluorobenzyl)oxy)phenoxy)-2,3-dihydro-4H-[1,4]oxazino[2,3-f]quinazolin-4-yl)prop-2-en-1-one]	≤ 50	≤ 50
CN(C)C/C=C/C(=O)N1CCOc2c1ccc1ncnc(Nc3ccc(OCc4cccc(F)c4)c(Cl)c3)c21 [Example 45, (E)-1-(10-((3-chloro-4-((3-fluorobenzyl)oxy)phenyl)amino)-2,3-dihydro-4H-[1,4]oxazino[2,3-f]quinazolin-4-yl)-4-(dimethylamino)but-2-en-1-one]	≤ 50	≤ 50
CN(C)C/C=C/C(=O)N1CCOc2c1ccc1ncnc(Nc3ccc(OCc4cccc(F)c4)c(C(F)(F)F)c3)c21 [Example 67]	≤ 50	≤ 50
CN(C)C/C=C/C(=O)N1CCOc2c1ccc1ncnc(Nc3ccc(OCc4ccncc4)cc3)c21 [Example 77, (E)-4-(dimethylamino)-1-(10-((4-(pyridin-4-ylmethoxy)phenyl)amino)-2,3-dihydro-4H-[1,4]oxazino[2,3-f]quinazolin-4-yl)but-2-en-1-one]	500 to 5000	≤ 50

Second part, the molecule after the results:

IC50 [1] [nM]	IC50 [2] [nM]	Compound
≤ 50	≤ 50	C=CC(=O)N1CCOc2c1ccc1ncnc(Oc3ccc(OCc4ccccc4F)cc3)c21 [Example 40, 1-(10-(4-((2-fluorobenzyl)oxy)phenoxy)-2,3-dihydro-4H-[1,4]oxazino[2,3-f]quinazolin-4-yl)prop-2-en-1-one]
≤ 50	≤ 50	CN(C)C/C=C/C(=O)N1CCOc2c1ccc1ncnc(Nc3ccc(Oc4cccc(C(F)(F)F)c4)cc3)c21 [Example 43, (E)-4-(dimethylamino)-1-(10-((4-(3-(trifluoromethyl)phenoxy)phenyl)amino)-2,3-dihydro-4H-[1,4]oxazino[2,3-f]quinazolin-4-yl)but-2-en-1-one]
≤ 50	≤ 50	CN(C)C/C=C/C(=O)N1CCOc2c1ccc1ncnc(Nc3ccc(Oc4ccc(Cl)cc4)cc3)c21 [Example 52, (E)-4-(dimethylamino)-1-(10-((4-(4-chlorophenoxy)phenyl)amino)-2,3-dihydro-4H-[1,4]oxazino[2,3-f]quinazolin-4-yl)but-2-en-1-one]
50 to 500	≤ 50	CC(Oc1ccc(Nc2ncnc3ccc4c(c23)OCCN4C(=O)/C=C/CN(C)C)cc1)c1ccccn1 (centres unmarked) [Example 75, (E)-4-(dimethylamino)-1-(10-((4-(1-(pyridin-2-yl)ethoxy)phenyl)amino)-2,3-dihydro-4H-[1,4]oxazino[2,3-f]quinazolin-4-yl)but-2-en-1-one]
50 to 500	≤ 50	COCCCCNC/C=C/C(=O)N1CCOc2c1ccc1ncnc(Nc3ccc(Oc4ccccc4F)cc3)c21 [Example 99, (E)-1-(10-((4-(2-fluorophenoxy)phenyl)amino)-2,3-dihydro-4H-[1,4]oxazino[2,3-f]quinazolin-4-yl)-4-((4-methoxybutyl)amino)but-2-en-1-one]

Reference: US11548900B2, “Oxazino-quinazoline and oxazino-quinoline type compound, preparation method and uses thereof” (BEIJING SCITECH-MQ PHARMACEUTICALS LIMITED, priority 2018, dated 2023)
